Results published in PubChem BioAssay (NCI).
“And” between values parts separate entries of the source, which are not always exact repeats. Equal entries are not always repeated.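 Cells were grown in 96-well plates and exposed to each compound for 48 hours at five concentrations; endpoints were interpolated linearly between bracketing concentrations, or set to the highest concentration if not reached. GI50 marks 50% less growth. The concentration for full growth arrest is given as TGI.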

Tests used:
Test in all cases: NCI tumour cell line growth inhibition, 48 h
SK-MEL-5 melanoma = tested on: SK-MEL-5 melanoma
MDA-MB-231 breast = tested on: MDA-MB-231 breast
OVCAR-3 ovarian = tested on: OVCAR-3 ovarian
SK-MEL-28 melanoma = tested on: SK-MEL-28 melanoma
KM12 colon = tested on: KM12 colon
ACHN renal = tested on: ACHN renal
NCI-H460 lung = tested on: NCI-H460 lung
MDA-MB-435 = tested on: MDA-MB-435
SNB-75 CNS = tested on: SNB-75 CNS
MALME-3M melanoma = tested on: MALME-3M melanoma

NC(=S)N/N=C1\c2cc(Cl)ccc2-c2c1cc(Cl)cc2[N+](=O)[O-]
GI50 (SK-MEL-5 melanoma): 2770 nM | TGI (SK-MEL-5 melanoma): 9280 nM | GI50 (MDA-MB-231 breast): 3850 nM | TGI (MDA-MB-231 breast): 34900 nM | GI50 (OVCAR-3 ovarian): 4660 nM | TGI (OVCAR-3 ovarian): 40800 nM | GI50 (SK-MEL-28 melanoma): 3830 nM | TGI (SK-MEL-28 melanoma): > 100000 nM | GI50 (KM12 colon): 5140 nM | TGI (KM12 colon): 88800 nM | GI50 (ACHN renal): 4810 nM | TGI (ACHN renal): > 100000 nM | GI50 (NCI-H460 lung): 3270 nM | TGI (NCI-H460 lung): 20700 nM | GI50 (MDA-MB-435): 7280 nM | TGI (MDA-MB-435): > 100000 nM | GI50 (SNB-75 CNS): 2840 nM | TGI (SNB-75 CNS): 28300 nM | GI50 (MALME-3M melanoma): 9260 nM | TGI (MALME-3M melanoma): 87400 nM

c1ccc(Nc2ncc(-c3ccccc3)o2)cc1
GI50 (SK-MEL-5 melanoma): > 25000 nM | TGI (SK-MEL-5 melanoma): > 25000 nM | GI50 (MDA-MB-231 breast): > 25000 nM | TGI (MDA-MB-231 breast): > 25000 nM | GI50 (OVCAR-3 ovarian): > 25000 nM | TGI (OVCAR-3 ovarian): > 25000 nM | GI50 (SK-MEL-28 melanoma): > 25000 nM | TGI (SK-MEL-28 melanoma): > 25000 nM | GI50 (KM12 colon): 10700 nM | TGI (KM12 colon): > 25000 nM | GI50 (ACHN renal): > 25000 nM | TGI (ACHN renal): > 25000 nM | GI50 (NCI-H460 lung): 25000 nM | TGI (NCI-H460 lung): > 25000 nM | GI50 (MDA-MB-435): > 25000 nM | TGI (MDA-MB-435): > 25000 nM | GI50 (SNB-75 CNS): > 24100 nM | TGI (SNB-75 CNS): > 25000 nM | GI50 (MALME-3M melanoma): > 25000 nM | TGI (MALME-3M melanoma): > 25000 nM

CCNC(=O)C#Cc1ccc2c(C(=Nc3ccc(CN(C)C)cc3)c3ccccc3)c(O)[nH]c2c1
GI50 (SK-MEL-5 melanoma): 307 nM | TGI (SK-MEL-5 melanoma): 1840 nM | GI50 (MDA-MB-231 breast): 29.5 nM | TGI (MDA-MB-231 breast): 502 nM | GI50 (OVCAR-3 ovarian): 752 nM | TGI (OVCAR-3 ovarian): > 10000 nM | GI50 (SK-MEL-28 melanoma): 9.11 nM | TGI (SK-MEL-28 melanoma): 102 nM | GI50 (KM12 colon): 32.3 nM | TGI (KM12 colon): > 10000 nM | GI50 (ACHN renal): 265 nM | TGI (ACHN renal): 2580 nM | GI50 (NCI-H460 lung): 10.6 nM | TGI (NCI-H460 lung): 1960 nM | GI50 (MDA-MB-435): 12.7 nM | TGI (MDA-MB-435): 2510 nM | GI50 (SNB-75 CNS): 750 nM | TGI (SNB-75 CNS): 2210 nM | GI50 (MALME-3M melanoma): 3.58 nM | TGI (MALME-3M melanoma): 26.8 nM

CC(=O)OCc1ccc2c(c1)C(O)NC(=O)O2 (stereo not given)
TGI (SK-MEL-5 melanoma): > 100000 nM | TGI (MDA-MB-231 breast): > 100000 nM | TGI (OVCAR-3 ovarian): 59400 nM | TGI (SK-MEL-28 melanoma): > 100000 nM | TGI (KM12 colon): > 100000 nM | TGI (ACHN renal): > 100000 nM | TGI (NCI-H460 lung): > 100000 nM | TGI (MDA-MB-435): > 100000 nM | TGI (SNB-75 CNS): > 100000 nM | TGI (MALME-3M melanoma): > 100000 nM

CCC(C)SC1SCC2C(=O)N(C)C3(CC3C)C(=O)OCC(NC(=O)c3nc4ccccc4cc3O)C(=O)NC(C)C(=O)N(C)C1C(=O)N(C)C1(CC1C)C(=O)OCC(NC(=O)c1nc3ccccc3cc1O)C(=O)NC(C)C(=O)N2C (stereo not given)
GI50 (SK-MEL-5 melanoma): 0.0291 nM | TGI (SK-MEL-5 melanoma): 0.112 nM and < 14.2 nM | TGI (MDA-MB-231 breast): 0.567 nM | GI50 (OVCAR-3 ovarian): 0.162 nM | TGI (OVCAR-3 ovarian): 7.68 nM | GI50 (SK-MEL-28 melanoma): 0.0302 nM | TGI (SK-MEL-28 melanoma): 0.138 nM | GI50 (KM12 colon): 0.0524 nM | TGI (KM12 colon): 0.397 nM | GI50 (ACHN renal): 0.296 nM | TGI (ACHN renal): 221 nM | TGI (NCI-H460 lung): 26.2 nM | TGI (MDA-MB-435): 0.19 nM | TGI (SNB-75 CNS): 0.083 nM | TGI (MALME-3M melanoma): 0.422 nM
